How the values were obtained:
[1] = target: AMPA receptor; experiment: AMPA receptor binding affinity (as described by T. Honoré et al., Neuroscience Letters 54, 27-32 (1985)); conditions: binding affinity for the AMPA receptor
[2] = tested on: AMPA-induced clonic seizures; experiment: In vivo AMPA seizure test (AMPA-induced clonic seizures); design: species or system female NMRI mice; conditions: Mus musculus; dose inhibiting 50% of the mice from having clonic seizures; test compound i.v. 5 min (or p.o. 30 min) before 0.3 µg icv AMPA; route not given
Experimental: Also compounds of the present invention when adminestered i.v. or i.p. in the in vivo AMPA seizure test as described below inhibit the clonic seizures induced by AMPA.
AMPA given icv (intracerebroventricular) (15 µg/kg) NMRI to mice induces clonic seizures which should be inhibited by non-NMDA receptor antagonists. Method: Test compound was given i.v. 5 min (or p.o. 30 min) before a 0.3 µg icv administration of AMPA to 10 female NMRI mice (weighing 24-26 g) per dose. The number of mice experiencing clonic seizures within the next 5 min was noted. An ED50 value was calculated as the dose inhibiting 50% of the mice from having clonic seizures.

IC50 [1] [µM]	SMILES	ED50 [2] [mg/kg]
0.2	CN1CCc2c(-c3ccccc3)cc3c(c2C1)NC(=O)C3=NO [Compound 9, 8-methyl-5-phenyl-6,7,8,9-tetrahydro-1H-pyrrolo[3,2-h]isoquinoline-2,3-dione 3-oxime]	
0.15	CN1CCc2c(-c3ccc([N+](=O)[O-])cc3)cc3c(c2C1)NC(=O)C3=NO [Compound 10, 8-methyl-5-(4-nitrophenyl)-6,7,8,9-tetrahydro-1H-pyrrolo[3,2-h]isoquinoline-2,3-dione 3-oxime]	5
0.6	CN1Cc2c(-c3ccc([N+](=O)[O-])cc3)cc3[nH]c(=O)c(=O)[nH]c3c2C1 [Compound 3]	
0.1	CCN1Cc2c(-c3ccccc3)cc3c(c2C1)NC(=O)C3=NO [Compound 13]	
